Source: patent publication US20260077018A1, “TREATMENT OF MILD TRAUMATIC BRAIN INJURY” (OXEIA BIOPHARMACEUTICALS, INC., priority 2022, published 2026)
No end group written: not given here. *: point of attachment. Octanoyl = CCCCCCCC(=O)*

Assays:
[1] = tested on: persistently symptomatic concussion patients; assay: Phase 2 study interim analysis, efficacy endpoints overall; type: in vivo, human
Description: (§1) A Phase 2 study of treatment of persistently symptomatic concussion patients with ghrelin (OXE-103) was undertaken at the University of Kansas Medical Center generally as described in Example 1. The interim results are reported herein (FIG. 1).
(§2) A study to treat patients with sub-acute concussion using a pharmaceutical formulation of ghrelin (OXE-103) was performed. The completed results from treatment group of 10 patients were compared to a 3 patient placebo group receiving standard of care (SoC). Additionally, two other patients are currently undergoing the treatment arm of the study at the time of the interim report. The study was performed in a randomized, double blind fashion and compared using self-report symptom scoring, quality of life questionnaires, computerized cognitive testing assessing executive function, memory and processing speed, and accelerometer-based balance scoring.
Efficacy endpoints for the interim study were: PCSS—22 symptom concussion scoring scale, QOLIBRI—WHO TBI specific Quality of Life after Brain Injury, and BRAIN CHECK—digital assessment of cognition, balance, visual changes (510K FDA approved).
Feedback from clinicians indicated a 20% decrease in concussion symptoms would be considered clinically significant improvement. Graphs of QOLIBRI (FIG. 3A), PCSS—total severity score (FIG. 4A), PGAS (FIG. 5A), 4MB3S (FIG. 6A), and PCSS number of symptoms (FIG. 7A) show a black line for 20% change from baseline. The graphs in FIGS. 3A, 4A, 5A, 6A, and 7A show average scores per time point for each endpoint at days 1, 4, 8, 11, 15, 21 and 44 for both the treatment and control (SoC) arms. For PCSS, number of symptoms, PGAS, and 4MBS, a patient is considered to have responded to treatment if percent change is less than or equal to −20% compared to baseline. For QOLIBRI, a patient is considered to have responded to treatment if percent change is greater than or equal to 20% compared to baseline.

[2] = in vivo; cited from earlier work
[3] = tested on: persistently symptomatic concussion patients; assay: Phase 2 study of OXE-103 in persistently symptomatic concussion: QOLIBRI quality of life; type: in vivo, human; conditions: Treated, 13 subjects
Description: Describe the change in quality of life between the two groups. This aim defines one of the secondary objectives. To assess this, the Quality of Life after Brain Injury scale (QOLIBRI) and a Patient Global Assessment of Status (PGAS) are administered. […] The primary objective with this aim assesses the change between days 1 and 14.
Described herein is a randomized, double-blind, placebo-controlled design where 40 subjects will be randomized to either a placebo cohort or a treatment with OXE-103 cohort. We randomize using the RedCap database. The database is set up to share randomization allocation only with the investigational pharmacy. All subjects are consented and begin the screening period within 28 days post-injury. There is a 7-day screening period prior to randomization and commencement of study treatment to allow for assessment of stability of symptom burden. This screening period must start no later than 28 days post-injury. Starting with Day 1 (end of screening period), the treatment cohort receives OXE-103 40ug/kg SC twice daily by self-injection and the placebo group receives a placebo injection SC twice daily. Study drug and placebo are maintained and dispensed by Investigational Pharmacy. Subjects receive an 8-day supply of syringes pre-loaded with OXE-103 or placebo. Each cohort receives the 2nd set of syringes with OXE-103 or placebo at the day 7 visit. No therapies other than OXE-103 are administered during the 14-day treatment period to either cohort. After completion of 14 days of either placebo or OXE-103 treatment, starting with the Day 14 visit, other medications and therapies can be initiated for either cohort as needed.
Quality of Life (AIM 2): A secondary goal is to examine change in quality of life with treatment of sub-acute concussion. Without bewing bound by theory, it is hypothesized that OXE-103 will reduce symptoms when comparing days 1 and 15 and therefore improve quality of life as assessed by 1) Quality of Life after Brain Injury scale (QOLIBRI) and 2) a PGAS.
The QOLIBRI is a 37 item instrument specifically developed to assess health-related quality of life (HRQoL) of individuals after traumatic brain injury. This is built into a RedCap Survey that will be completed online. Since it was developed for TBI as a disease or condition-specific HRQoL instrument, it is expected to be more sensitive than generic quality of life tools. The QOLIBRI was developed by an international task force in two multi-language studies involving over 2000 persons after TBI. Use of a TBI-specific assessment of HRQoL can detect the effects of interventions by measuring physical, psychological, daily life and psychosocial changes typical of TBI. An increase/decrease of 20% in QOLIBRI is judged to represent an improvement.
The QOL measures are obtained on day 1, 4, 8, 11, 15, 21, & 44. The completion of these takes an estimated 15 minutes.
as §1, §2
Feedback from clinicians indicated a 20% decrease in concussion symptoms would be considered clinically significant improvement. […]

ghrelin (GSS(Octanoyl)FLSPEHQRVQQRKESKKPPAKLQPR; UniProt Q9UBU3 24-51, looked up) [OXE-103, naturally occurring peptide comprising 28 amino acids that include an N-octanoyl group at the 3-position of serine]
durability of treatment effects ([1]; across study endpoints): at least 44 days
Responder Rate (RR) ([1]; both endpoints, by 40 days after start of treatment): 80%
onset of treatment effect ([1]; persistently effected population): 8 to 10 days
improvement ([1]; within 8-10 days of treatment, interim time point): greater than 20%
serum half-life [2]: about 30 minutes
20% Responders - QOLIBRI: Number of Responders ([3]; Day 1): 0
20% Responders - QOLIBRI: Responder % ([3]; Day 1): 0%
30% Responders - QOLIBRI: Number of Responders ([3]; Day 1): 0
30% Responders - QOLIBRI: Responder % ([3]; Day 1): 0%
20% Responders - QOLIBRI: Number of Responders ([3]; Day 4): 4
20% Responders - QOLIBRI: Responder % ([3]; Day 4): 31%
30% Responders - QOLIBRI: Number of Responders ([3]; Day 4): 3
30% Responders - QOLIBRI: Responder % ([3]; Day 4): 23%
20% Responders - QOLIBRI: Number of Responders ([3]; Day 8): 4
20% Responders - QOLIBRI: Responder % ([3]; Day 8): 31%
30% Responders - QOLIBRI: Number of Responders ([3]; Day 8): 4
30% Responders - QOLIBRI: Responder % ([3]; Day 8): 31%
20% Responders - QOLIBRI: Number of Responders ([3]; Day 11): 7
20% Responders - QOLIBRI: Responder % ([3]; Day 11): 54%
30% Responders - QOLIBRI: Number of Responders ([3]; Day 11): 5
30% Responders - QOLIBRI: Responder % ([3]; Day 11): 38%
20% Responders - QOLIBRI: Number of Responders ([3]; Day 15): 7
20% Responders - QOLIBRI: Responder % ([3]; Day 15): 54%
30% Responders - QOLIBRI: Number of Responders ([3]; Day 15): 5
30% Responders - QOLIBRI: Responder % ([3]; Day 15): 38%
20% Responders - QOLIBRI: Number of Responders ([3]; Day 21): 9
20% Responders - QOLIBRI: Responder % ([3]; Day 21): 69%
30% Responders - QOLIBRI: Number of Responders ([3]; Day 21): 7
30% Responders - QOLIBRI: Responder % ([3]; Day 21): 54%
20% Responders - QOLIBRI: Number of Responders ([3]; Day 44): 11
20% Responders - QOLIBRI: Responder % ([3]; Day 44): 85%
30% Responders - QOLIBRI: Number of Responders ([3]; Day 44): 10
30% Responders - QOLIBRI: Responder % ([3]; Day 44): 77%
